From ChEMBL document CHEMBL1201862, “PubChem BioAssay data set” (2004)
Active and inactive are the calls of the source.

What was measured:
Format in all cases: functional
[1] = target: T1, Orexin receptor type 2 (Homo sapiens, UniProt O43614); experiment: Counterscreen assay for antagonists of the orexin 1 receptor (OX1R; HCRTR1): Fluorescence-based cell-based dose response assay for antagonists of the orexin 2 receptor (OX2R; HCRTR2), run by assay provider.
T1 sequence (O43614 whole entry): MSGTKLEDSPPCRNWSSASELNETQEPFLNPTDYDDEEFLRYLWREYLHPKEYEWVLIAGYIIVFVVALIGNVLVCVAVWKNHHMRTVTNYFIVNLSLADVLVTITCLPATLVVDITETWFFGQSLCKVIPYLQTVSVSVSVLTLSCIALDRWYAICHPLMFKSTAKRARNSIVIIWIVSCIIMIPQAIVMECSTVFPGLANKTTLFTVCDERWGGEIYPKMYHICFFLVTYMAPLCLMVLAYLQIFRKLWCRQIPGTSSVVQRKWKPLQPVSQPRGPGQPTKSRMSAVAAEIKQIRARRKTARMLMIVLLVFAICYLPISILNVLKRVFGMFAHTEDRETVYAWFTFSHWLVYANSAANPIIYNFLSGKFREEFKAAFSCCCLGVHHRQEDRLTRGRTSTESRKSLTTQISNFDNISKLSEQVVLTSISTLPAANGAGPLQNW

[2] = test system: CHO-K1; experiment: (§1) Counterscreen for antagonists of the orexin 1 receptor (OX1R; HCRTR1): Homogeneous time resolved fluorescence (HTRF)-based cell-based dose response assay to identify antagonists of the parental CHO-K1 cell line. [Related pubchem assays (depositor defined):AID434989, AID435008, AID463079, AID485270, AID492963, AID492964, AID492965, AID493232, AID504699, AID504701]; settings: Cricetulus griseus
[3] = target: T2, Orexin/Hypocretin receptor type 1 (Homo sapiens, UniProt O43613); experiment: (§2) Fluorescence-based cell-based high throughput dose response assay for antagonists of the orexin 1 receptor (OX1R; HCRTR1). [Related pubchem assays (depositor defined):AID434989, AID435008, AID463079, AID485270, AID492963, AID492964, AID492965, AID493232, AID504717, AID504718]
T2 sequence (O43613 whole entry): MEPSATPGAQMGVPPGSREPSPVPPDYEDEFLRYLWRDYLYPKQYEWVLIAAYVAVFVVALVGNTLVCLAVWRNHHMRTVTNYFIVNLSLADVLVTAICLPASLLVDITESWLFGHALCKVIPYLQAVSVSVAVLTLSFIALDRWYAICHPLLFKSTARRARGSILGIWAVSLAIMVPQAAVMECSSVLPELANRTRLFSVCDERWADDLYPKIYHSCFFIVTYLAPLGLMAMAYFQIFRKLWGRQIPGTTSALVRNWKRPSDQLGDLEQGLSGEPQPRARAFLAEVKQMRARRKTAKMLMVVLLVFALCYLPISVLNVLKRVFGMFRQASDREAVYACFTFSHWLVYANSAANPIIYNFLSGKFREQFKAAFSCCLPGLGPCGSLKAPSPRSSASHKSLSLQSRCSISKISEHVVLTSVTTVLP

[4] = target: T2, Orexin/Hypocretin receptor type 1; experiment: as §2, with “Homogeneous Time Resolved Fluorescence (HTRF)-based” for “Fluorescence-based”
[5] = as §1, with “Fluorescence-based” for “Homogeneous time resolved fluorescence (HTRF)-based”, “cell-based high throughput” for “cell-based”, “CHO” for “CHO-K1”
[6] = target: T1, Orexin receptor type 2; experiment: Counterscreen assay for antagonists of the orexin 1 receptor (OX1R; HCRTR1): Homogeneous Time Resolved Fluorescence (HTRF)-based cell-based dose response assay for antagonists of the orexin 2 receptor (OX2R; HCRTR2), run by assay provider.
[7] = target: T3, Sentrin-specific protease 6 (Homo sapiens, UniProt Q9GZR1); experiment: SAR Analysis of small molecule inhibitors of Sentrin-specific protease 6 (SENP6) using a Luminescent assay. [Related pubchem assays (depositor defined):AID2582, AID2599]
T3 sequence (Q9GZR1 whole entry): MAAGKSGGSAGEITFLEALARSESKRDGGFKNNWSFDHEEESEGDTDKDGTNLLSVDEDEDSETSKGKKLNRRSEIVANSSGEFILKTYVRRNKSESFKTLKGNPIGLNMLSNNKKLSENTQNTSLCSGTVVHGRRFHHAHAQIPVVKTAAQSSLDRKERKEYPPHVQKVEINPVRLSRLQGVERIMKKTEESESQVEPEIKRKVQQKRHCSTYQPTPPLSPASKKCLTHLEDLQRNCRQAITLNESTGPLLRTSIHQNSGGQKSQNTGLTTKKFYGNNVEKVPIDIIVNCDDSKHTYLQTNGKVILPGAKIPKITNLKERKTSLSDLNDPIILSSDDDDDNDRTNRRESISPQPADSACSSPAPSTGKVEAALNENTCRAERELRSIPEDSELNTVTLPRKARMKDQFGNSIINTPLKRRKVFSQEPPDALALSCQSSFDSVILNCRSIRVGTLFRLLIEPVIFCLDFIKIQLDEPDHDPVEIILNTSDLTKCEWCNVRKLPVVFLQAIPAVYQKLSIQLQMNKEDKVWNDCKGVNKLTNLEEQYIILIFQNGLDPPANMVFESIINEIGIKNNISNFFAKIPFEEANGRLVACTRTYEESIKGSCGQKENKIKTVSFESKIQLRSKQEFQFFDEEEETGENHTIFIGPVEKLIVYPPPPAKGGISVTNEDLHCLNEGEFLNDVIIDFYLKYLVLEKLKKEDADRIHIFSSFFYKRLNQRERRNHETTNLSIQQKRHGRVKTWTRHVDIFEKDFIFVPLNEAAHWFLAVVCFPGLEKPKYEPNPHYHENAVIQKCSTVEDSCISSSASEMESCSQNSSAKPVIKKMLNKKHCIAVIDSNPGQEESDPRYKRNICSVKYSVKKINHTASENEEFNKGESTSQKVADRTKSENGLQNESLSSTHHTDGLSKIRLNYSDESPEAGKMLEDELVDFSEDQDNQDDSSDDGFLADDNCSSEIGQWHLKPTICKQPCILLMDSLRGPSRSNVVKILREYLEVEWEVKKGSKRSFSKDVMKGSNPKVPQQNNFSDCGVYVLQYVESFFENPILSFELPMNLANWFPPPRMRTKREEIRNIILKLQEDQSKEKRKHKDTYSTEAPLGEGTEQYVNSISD

[8] = target: T4, Sentrin-specific protease 7 (Homo sapiens, UniProt Q9BQF6); experiment: inhibition of human SENP7 cleavage activity – biochemical, luminescence, SAR follow-up (AID 504497)
T4 sequence (Q9BQF6 whole entry): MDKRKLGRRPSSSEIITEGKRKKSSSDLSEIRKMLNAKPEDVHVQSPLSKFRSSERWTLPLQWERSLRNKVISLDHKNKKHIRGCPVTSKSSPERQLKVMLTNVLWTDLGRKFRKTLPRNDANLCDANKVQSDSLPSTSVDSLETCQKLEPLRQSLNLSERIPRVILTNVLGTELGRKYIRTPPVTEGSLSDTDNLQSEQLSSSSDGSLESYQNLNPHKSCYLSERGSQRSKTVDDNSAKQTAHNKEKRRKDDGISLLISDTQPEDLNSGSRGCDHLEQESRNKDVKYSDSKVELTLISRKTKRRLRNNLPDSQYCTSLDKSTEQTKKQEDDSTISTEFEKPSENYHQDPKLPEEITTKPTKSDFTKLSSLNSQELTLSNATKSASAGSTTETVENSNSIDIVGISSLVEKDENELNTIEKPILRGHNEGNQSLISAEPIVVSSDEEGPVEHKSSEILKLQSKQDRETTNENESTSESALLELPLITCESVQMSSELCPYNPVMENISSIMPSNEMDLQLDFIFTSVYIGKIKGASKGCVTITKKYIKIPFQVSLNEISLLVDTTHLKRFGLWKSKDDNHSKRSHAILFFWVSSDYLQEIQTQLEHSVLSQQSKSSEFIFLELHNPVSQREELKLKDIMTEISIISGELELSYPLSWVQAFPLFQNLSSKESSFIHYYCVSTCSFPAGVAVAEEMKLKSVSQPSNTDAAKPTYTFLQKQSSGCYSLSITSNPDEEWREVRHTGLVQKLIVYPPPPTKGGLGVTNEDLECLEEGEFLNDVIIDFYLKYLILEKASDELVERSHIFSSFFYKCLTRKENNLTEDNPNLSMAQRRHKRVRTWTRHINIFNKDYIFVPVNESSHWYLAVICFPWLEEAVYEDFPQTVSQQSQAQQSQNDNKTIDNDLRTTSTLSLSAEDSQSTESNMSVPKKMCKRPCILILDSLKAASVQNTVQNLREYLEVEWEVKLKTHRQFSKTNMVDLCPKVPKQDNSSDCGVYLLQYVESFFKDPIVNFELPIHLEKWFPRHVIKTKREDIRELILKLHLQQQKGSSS

[9] = target: T5, Sentrin-specific protease 8 (Homo sapiens, UniProt Q96LD8);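 also: luminescence read-out of SENP8 inhibition, dose-response confirmation following an ultra-high-throughput screen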
T5 sequence (Q96LD8 whole entry): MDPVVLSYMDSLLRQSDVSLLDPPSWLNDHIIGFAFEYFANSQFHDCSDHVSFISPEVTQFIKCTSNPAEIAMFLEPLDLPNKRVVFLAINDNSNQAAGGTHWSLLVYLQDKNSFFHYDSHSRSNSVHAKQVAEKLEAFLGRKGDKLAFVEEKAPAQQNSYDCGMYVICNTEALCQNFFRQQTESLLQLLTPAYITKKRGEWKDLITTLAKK

[10] = target: T3, Sentrin-specific protease 6
[11] = target: T6, Caspase-3 (Homo sapiens, UniProt P42574)
T6 sequence (P42574 whole entry): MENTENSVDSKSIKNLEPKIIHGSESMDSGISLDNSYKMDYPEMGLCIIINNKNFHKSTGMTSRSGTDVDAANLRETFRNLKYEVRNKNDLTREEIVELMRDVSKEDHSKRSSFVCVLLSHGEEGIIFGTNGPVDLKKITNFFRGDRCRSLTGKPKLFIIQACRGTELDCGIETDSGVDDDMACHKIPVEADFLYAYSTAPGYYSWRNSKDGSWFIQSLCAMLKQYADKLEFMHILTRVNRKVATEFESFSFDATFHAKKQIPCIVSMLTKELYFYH

[12] = target: T4, Sentrin-specific protease 7
[13] = target: T6, Caspase-3; experiment: SAR Analysis of small molecule inhibitors of Sentrin-specific proteases (SENPs) using a Caspase-3 Selectivity assay. [Related pubchem assays (depositor defined):AID2540, AID2599, AID434973, AID489001]

| SMILES | IC50 [1] | IC50 [2] | IC50 [3] | IC50 [4] | IC50 [5] | IC50 [6] | IC50 [7] | IC50 [8] | IC50 [9] | IC50 [10] | IC50 [11] | IC50 [12] | IC50 [13] |
| --- | --- | --- | --- | --- | --- | --- | --- | --- | --- | --- | --- | --- | --- |
| O=C(N/N=C/c1c(Cl)[nH]c2ccccc12)c1sc2ccccc2c1Cl | > 88.8 µM (inactive) | > 66.2 µM (inactive) | 3.23 µM (active) | 2.14 µM (active) | > 49.7 µM (inactive) | 6.88 µM (active) | – | – | – | – | – | – | – |
| Fc1ccc(COc2ccc(C(=S)N3CCCC3)cc2)cc1 | – | – | – | – | – | – | 1.68 µM (active) | 2.16 µM (active) | 2.46 µM (active) | 8.99 µM (active) | 7.14 µM (active) | 5.33 µM (active) | 1.31 µM (active) |
| Cc1c(C(=O)Nc2ccc(N3CCOCC3)cc2)oc2ccccc12 | > 88.8 µM (inactive) | > 66.2 µM (inactive) | 1.46 µM (active) | 0.277 µM (active) | > 49.8 µM (inactive) | > 50 µM (inactive) | – | – | – | – | – | – | – |
